# In PMC6277767, “Broad and Region-Specific Impacts of the Synthetic Cannabinoid CP 55,940 in Adolescent and Adult Female Mouse Brains” (Frontiers in Molecular Neuroscience, 2018):
# Test system: CD1 female mouse brain lipidome
# Assay: Brain-region lipid levels (HPLC/MS/MS lipidomics) 2 h after single i.p. 3 mg/kg CP 55,940 vs vehicle
# Assay type: in vivo
# Experimental: The Bloomington Institutional Animal Care and Use Committee of Indiana University reviewed and approved the animal procedures. Female mice from the CD1 strain were utilized to match our study examining THC’s effects on the brain lipidome ([Leishman et al., 2018]). Mice were given a single i.p. injection of either 3 mg/kg CP or 1:1:18 cremophor:ethanol:saline vehicle (please refer to the section “3 mg/kg CP Is Relevant for Synthetic Cannabinoid Abuse and Has Stronger Effects on the Female Mouse Brain Lipidome During Adolescence” for a justification of dose and use of female mice). Three different age groups were given injections: PND 35 and PND 50 adolescents, and adult mice (PND 113). At least eight mice in each age group received CP and at least eight received vehicle. Matching the THC study time course ([Leishman et al., 2018]), mice were sacrificed via rapid decapitation 2 h after injection. Brains were immediately removed and flash-frozen in liquid nitrogen, and then stored at -80°C until dissections were performed. Brains were dissected on an ice-cold dissection plate into the following regions: STR, HIPP, CER, THAL, CTX, HYP, MID, and STEM. These abbreviations for these brain areas will be used exclusively when discussing the results generated by these specific dissections. Each dissected area was immediately placed in liquid nitrogen and then stored at -80°C until used for lipid extraction.
# Tissue extracts were performed as previously described ([Bradshaw et al., 2006]; [Stuart et al., 2013]; [Raboune et al., 2014]; [Leishman et al., 2016a],[b], [2017], [2018]). First, samples were shock frozen in liquid nitrogen, weighed, and transferred to a centrifuge tube. The mass of the largest sample was multiplied by 50 to determine how many milliliters of HPLC-grade methanol (Fisher, Fair Lawn, NJ, United States) to add. Then, samples were spiked with 500 pmol deuterium-labeled NAGly (d8NAGly; Cayman Chemical, Ann Arbor, MI, United States). Samples were placed on ice in darkness for 2 h then individually homogenized and centrifuged at 19,000 × g for 20 min at 20°C. Supernatants were diluted with HPLC water (purified in house) to make a solution of 75% water, 25% supernatant. Lipids were partially purified on C18 solid phase extraction columns (Agilent, Palo Alto, CA, United States). A series of four elutions with 1.5 mL of 60%, 75%, 85%, and 100% methanol were collected ([Stuart et al., 2013]; [Leishman et al., 2016a],[b], [2018]).
# As previously described ([Bradshaw et al., 2006]; [Tan et al., 2006]; [Smoum et al., 2010]; [Stuart et al., 2013]; [Tortoriello et al., 2013]; [Raboune et al., 2014]; [Leishman et al., 2016a],[b], [2017], [2018]), samples were analyzed using an Applied Biosystems API 3000 triple quadrupole mass spectrometer with electrospray ionization (Foster City, CA, United States). Using an Agilent XDB-C18 reversed phase analytical column and optimized mobile phase gradients, 20 μL from each elution were chromatographed. Two Shimadzu 10ADvp pumps (Columbia, MD, United States) provided the pressure for gradient elution. Mobile phase A: 20% methanol, 80% water (v/v) and 1 mM ammonium acetate (Sigma, St. Louis, MO, United States). Mobile phase B: 100% methanol, 1 mM ammonium acetate. Every method run began with 0% mobile phase B, reached 100% mobile phase B flowing at 0.2 mL/min, and gradually returned to 0% mobile phase B.
# This screening library will be referred to as the lipidome when discussing data from this study. HPLC/MS/MS data were analyzed using Analyst software (Applied Biosystems) ([Bradshaw et al., 2006]; [Tan et al., 2006]; [Stuart et al., 2013]; [Tortoriello et al., 2013]; [Raboune et al., 2014]; [Leishman et al., 2016a],[b], [2017], [2018]). Chromatograms (Supplementary Figure 3) were generated by determining the retention time of analytes from the analytical column with a [M-1] or [M+1] parent peak and a fragmentation peak corresponding to the programmed values. […]
# [1] = adult midbrain, 3mg/kg CP 55,940, p .049
# [2] = adult midbrain, 3mg/kg CP 55,940, p .055
# [3] = adult midbrain, 3mg/kg CP 55,940, p .060
# [4] = adult midbrain, 3mg/kg CP 55,940, p .063
# [5] = adult midbrain, 3mg/kg CP 55,940, p .073
# [6] = adult midbrain, 3mg/kg CP 55,940, p .087
# [7] = adult midbrain, 3mg/kg CP 55,940, p .098
# [8] = brainstem, PND35, 3 mg/kg CP 55,940 vs Veh
# [9] = brainstem, PND35 female mice, 3mg/kg CP 55,940, mean
# [10] = brainstem, PND 50, 3 mg/kg CP 55,940
smiles,measurement,setting,value
"CCCCCCC(C)(C)c1ccc([C@@H]2C[C@H](O)CC[C@H]2CCCO)c(O)c1 [CP 55,940]",PGE2 Direction (relative to Veh),[1],↑
same,PGE2 Magnitude (x Veh level),[1],1.17
same,6-ketoPGF1α Direction (relative to Veh),[2],↑
same,6-ketoPGF1α Magnitude (x Veh level),[2],1.29
same,"N-arachidonoyl ethanolamine, Direction (relative to Veh)",[3],↓
same,"N-arachidonoyl ethanolamine, Magnitude (x Veh level)",[3],0.78
same,N-linoleoyl glycine Direction (relative to Veh),[4],↓
same,N-linoleoyl glycine Magnitude (x Veh level),[4],0.52
same,N-stearoyl ethanolamine direction (relative to Veh),[5],↑
same,N-stearoyl ethanolamine magnitude (x Veh level),[5],1.44
same,N-linoleoyl serine Direction (relative to Veh),[6],↓
same,N-linoleoyl serine Magnitude (x Veh level),[6],0.79
same,N-arachidonoyl serine Direction (relative to Veh),[7],↓
same,N-arachidonoyl serine Magnitude (x Veh level),[7],0.53
same,changes in lipid levels that were decreases,"adult, eight regions",78
same,"2-arachidonoyl glycerol, Direction (relative to Veh)",[8],↓
same,"2-arachidonoyl glycerol, Magnitude (x Veh level)",[8],0.81 x Veh level
same,2-linoleoyl glycerol Direction (relative to Veh),[8],↓
same,2-linoleoyl glycerol Magnitude (x Veh level),[8],0.82 x Veh level
same,N-arachidonoyl GABA Direction (relative to Veh),[8],↓
same,N-arachidonoyl GABA Magnitude (x Veh level),[8],0.70 x Veh level
same,N-arachidonoyl taurine Direction (relative to Veh),[8],↓
same,N-arachidonoyl taurine Magnitude (x Veh level),[8],0.89 x Veh level
same,N-docosahexaenoyl leucine Direction (relative to Veh),[8],↑
same,N-docosahexaenoyl leucine Magnitude (x Veh level),[8],1.37 x Veh level
same,N-docosahexaenoyl valine Direction (relative to Veh),[8],↑
same,N-docosahexaenoyl valine Magnitude (x Veh level),[8],1.56 x Veh level
same,N-oleoyl leucine Direction (relative to Veh),[8],↑
same,N-oleoyl leucine Magnitude (x Veh level),[8],1.15 x Veh level
same,N-oleoyl proline Direction (relative to Veh),[8],↑
same,N-oleoyl proline Magnitude (x Veh level),[8],1.16 x Veh level
same,N-oleoyl valine Direction (relative to Veh),[8],↑
same,N-oleoyl valine Magnitude (x Veh level),[8],1.26 x Veh level
same,"N-palmitoyl leucine, Direction (relative to Veh)",[8],↑
same,"N-palmitoyl leucine, Magnitude (x Veh level)",[8],1.38 x Veh level
same,N-palmitoyl phenylalanine Direction (relative to Veh),[8],↑
same,N-palmitoyl phenylalanine Magnitude (x Veh level),[8],1.22 x Veh level
same,N-palmitoyl proline Direction (relative to Veh),[8],↑
same,N-palmitoyl proline Magnitude (x Veh level),[8],1.20 x Veh level
same,N-palmitoyl tryptophan Direction (relative to Veh),[8],↓
same,N-palmitoyl tryptophan Magnitude (x Veh level),[8],0.82 x Veh level
same,N-palmitoyl valine Direction (relative to Veh),[8],↑
same,N-palmitoyl valine Magnitude (x Veh level),[8],1.40 x Veh level
same,N-stearoyl valine Direction (relative to Veh),[8],↑
same,N-stearoyl valine Magnitude (x Veh level),[8],1.41 x Veh level
same,PGE2 Direction (relative to Veh),[8],↑
same,PGE2 Magnitude (x Veh level),[8],1.15 x Veh level
same,2-arachidonoyl glycerol level,[9],3.96E-10
same,2-linoleoyl glycerol level,[9],1.58E-10
same,2-oleoyl glycerol level,[9],1.53E-09
same,2-palmitoyl glycerol level,[9],2.82E-10
same,6-ketoPGF1α level,[9],1.2E-11
same,11-OH-THC level,[9],BDL
same,11-nor-9-carboxyTHC level,[9],BDL
same,Arachidonic acid level,[9],1.65E-09
same,Cannabidiol level,[9],BDL
same,Linoleic acid level,[9],5.88E-10
same,N- stearoyl valine level,[9],5.2E-13
same,N-arachidonoyl serine level,[9],3.04E-12
same,N-arachidonoyl taurine level,[9],1.88E-11
same,N-arachidonoyl tryptophan level,[9],BDL
same,N-arachidonoyl tyrosine level,[9],6.37E-13
same,N-docosahexaenoyl serine level,[9],1.42E-11
same,N-docosahexaenoyl tyrosine level,[9],8.89E-13
same,N-docosahexaenoyl valine level,[9],1.82E-13
same,N-linoleoyl serine level,[9],2.61E-11
same,N-linoleoyl tryptophan level,[9],BDL
same,N-linoleoyl tyrosine level,[9],BDL
same,N-nervonoyl valine level,[9],BDL
same,N-oleoyl proline level,[9],6.88E-13
same,N-oleoyl serine level,[9],1.44E-10
same,N-oleoyl tyrosine level,[9],5.15E-13
same,N-oleoyl valine level,[9],5.41E-13
same,N-palmitoyl proline level,[9],9.02E-13
same,N-palmitoyl serine level,[9],3.95E-11
same,N-palmitoyl tryptophan level,[9],2.02E-13
same,N-palmitoyl tyrosine level,[9],8.2E-13
same,N-palmitoyl valine level,[9],1.16E-12
same,N-stearoyl proline level,[9],4.63E-13
same,N-stearoyl serine level,[9],2.01E-11
same,N-stearoyl tryptophan level,[9],2.84E-13
same,N-stearoyl tyrosine level,[9],8.52E-14
same,Oleic acid level,[9],1.63E-09
same,PGE2 level,[9],2.93E-10
same,PGF2α level,[9],2.4E-10
same,PhosphoLEA level,[9],2.06E-11
same,THC level,[9],BDL
same,"2-arachidonoyl glycerol level, Mean",[10],2.23E-10
same,"2-linoleoyl glycerol level, Mean",[10],2.39E-10
same,"2-oleoyl glycerol level, Mean",[10],3.85E-09
same,"2-palmitoyl glycerol level, Mean",[10],8.83E-10
same,"6-ketoPGF1α level, Mean",[10],1.35E-11
same,"11-OH-THC level, Mean",[10],BDL
same,"11-nor-9-carboxyTHC level, Mean",[10],BDL
same,"Arachidonic acid level, Mean",[10],1.44E-10
same,"Cannabidiol level, Mean",[10],BDL
same,"Linoleic acid level, Mean",[10],1.4E-10
same,"N- stearoyl valine level, Mean",[10],8.37E-14
same,"N-arachidonoyl GABA level, Mean",[10],3.67E-12
same,"N-arachidonoyl alanine level, Mean",[10],1.22E-13
same,"N-arachidonoyl dopamine level, Mean",[10],BDL
same,"N-arachidonoyl ethanolamine level, Mean",[10],2.44E-11
